In US20250195521A1 (Revolution Medicines, Inc., priority 2020, published 2025) one finds IC50 and EC50 data, which are given here for 17 compounds.

Usually IC50 stands for the concentration at which inhibition is half-maximal. A word on the EC50: it is the concentration giving half of the maximal effect.

In one assay the target is KRAS G12V (Homo sapiens (Human), UniProt P01116+P62937, G12V). Nature of the assay: Ras-Raf disruption/FRET/MOA assay, KRAS G12V. The class given is biochemical. From the text:
(§1) Disruption of B-Raf Ras-Binding Domain (BRAF^RBD) Interaction with K-Ras by Compounds of the Invention (Also Called a FRET Assay or an MOA Assay)
(§2) Note—The following protocol describes a procedure for monitoring disruption of K-Ras G12C (GMP-PNP) binding to BRAF^RBD by a compound of the invention. This protocol may also be executed substituting other Ras proteins or nucleotides, such as K-Ras G12D and K-Ras G13D.
(§3) The purpose of this biochemical assay was to measure the ability of test compounds to facilitate ternary complex formation between a nucleotide-loaded K-Ras isoform and Cyclophilin A; the resulting ternary complex disrupts binding to a BRAF^RBD construct, inhibiting K-Ras signaling through a RAF effector. Data is reported as IC50 values.
(§4) In assay buffer containing 25 mM HEPES pH 7.3, 0.002% Tween20, 0.1% BSA, 100 mM NaCl and 5 mM MgCl2, tagless Cyclophilin A, His6-K-Ras-GMPPNP, and GST-BRAF^RBD were combined in a 384-well assay plate at final concentrations of 25 μM, 12.5 nM, and 50 nM, respectively. Compound was present in plate wells as a 10-point 3-fold dilution series starting at a final concentration of 30 μM. After incubation at 25° C. for 3 hours, a mixture of anti-His Eu—W1024 and anti-GST allophycocyanin was then added to assay sample wells at final concentrations of 10 nM and 50 nM, respectively, and the reaction incubated for an additional 1.5 hours. […] Compounds that facilitate disruption of a K-Ras: RAF complex were identified as those eliciting a decrease in the TR-FRET ratio relative to DMSO control wells.

For another assay, the target named is KRAS WT (Homo sapiens (Human), UniProt P01116+P62937). In words: Ras-Raf disruption/FRET/MOA assay, KRAS WT. The class given is biochemical. The settings on record: read-out: KRAS WT FRET IC50.
Chain of KRAS WT (P01116 other isoform, or with tags, fused parts or gaps): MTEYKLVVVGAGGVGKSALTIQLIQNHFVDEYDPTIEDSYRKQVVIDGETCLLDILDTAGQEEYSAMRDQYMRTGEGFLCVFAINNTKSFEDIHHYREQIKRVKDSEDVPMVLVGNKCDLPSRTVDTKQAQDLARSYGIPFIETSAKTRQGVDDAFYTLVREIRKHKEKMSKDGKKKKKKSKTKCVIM
Chain of KRAS WT (P62937 whole entry): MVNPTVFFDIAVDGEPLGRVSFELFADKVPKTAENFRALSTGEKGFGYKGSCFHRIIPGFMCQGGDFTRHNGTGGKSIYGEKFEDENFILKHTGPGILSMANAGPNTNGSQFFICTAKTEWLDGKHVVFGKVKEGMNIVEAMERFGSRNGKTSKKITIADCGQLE
Source text: as §1, §2, §3, §4

For a further assay, the system named is NCI-H358 (K-Ras G12C). Nature of the assay: CellTiter-Glo cell viability assay, H358. Type of assay: cell-based, human. To be noted: Homo sapiens, NCI-H358, 120 h, read-out: H358 Cell Viability IC50, K-Ras G12C, 5-day treatment. Put shortly:
(§5)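 Steps: compound dispensed into wells holding cells; incubation to day 5; ~30 min room-temperature equilibration; luminescence read; sample signal divided by mean DMSO signal, times 100; four-parameter logistic curve fit.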
Background: Cellular ATP, detected with luciferase, serves as a proxy for viable cell number.

For assay [1], the system named is AsPC-1 (K-Ras G12D). Nature of the assay: Potency assay: pERK. The class given is cell-based, human. To be noted: Homo sapiens, ASPC1, read-out: pERK EC50. The method in brief: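 Cells plated overnight, then exposed 4 h at 37 °C to 10-point 3-fold dilutions of compound, in duplicate. pERK read by AlphaLISA SureFire Ultra p-ERK1/2 lysate assay or by In-Cell Western (pERK antibody, DRAQ5 DNA normalisation). IC50 from 4-parameter sigmoidal fit of signal vs log concentration.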

Assay [2] has as its system AsPC-1 (K-Ras G12D). In words: CellTiter-Glo cell viability assay, AsPC-1. The class given is cell-based, human. The settings on record: Homo sapiens, ASPC1, 120 h, read-out: AsPC-1 Cell Viability IC50. Put shortly:
as §5

Where two headings read alike, the source gives them in different places.

Chain of KRAS G12V (P01116 other isoform, or with tags, fused parts or gaps G12V): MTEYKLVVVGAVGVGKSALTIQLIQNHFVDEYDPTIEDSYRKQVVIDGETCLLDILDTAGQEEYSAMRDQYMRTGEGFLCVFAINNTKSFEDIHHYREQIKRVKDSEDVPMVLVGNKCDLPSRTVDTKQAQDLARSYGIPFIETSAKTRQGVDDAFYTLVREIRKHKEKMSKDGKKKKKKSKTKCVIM
Chain of KRAS G12V (P62937 whole entry, the tested form may be a part): as the sequence (P62937 whole entry) above

As for `CCn1c(-c2cccnc2[C@H](C)OC)c2c3cc(ccc31)-c1cccc(c1)C[C@H](NC(=O)[C@H](C(C)C)N(C)C(=O)[C@H]1CC[C@H](N=C=NCc3ccccc3OC)C1)C(=O)N1CCC[C@H](N1)C(=O)OCC(C)(C)C2` [Example 76], on KRAS G12V (read-out: KRAS G12V FRET IC50), the IC50 is 1 to 10 µM.

Regarding `CCn1c(-c2cccnc2[C@H](C)OC)c2c3cc(ccc31)-c1cccc(c1)C[C@H](NC(=O)[C@H](C(C)C)N(C)C(=O)[C@H]1CC[C@H](N=C=NC(C)(C)C)C1)C(=O)N1CCC[C@H](N1)C(=O)OCC(C)(C)C2` [Example 125], the half-inhibitory concentration (IC50) at KRAS G12V (read-out: KRAS G12V FRET IC50) lay in the range of 1 to 10 µM.

In the case of `CCn1c(-c2cccnc2[C@H](C)OC)c2c3cc(ccc31)-c1cc(O)cc(c1)C[C@H](NC(=O)[C@H](C1CCCC1)N(C)C(=O)[C@@H](C)N(C)C(=O)[C@@H]1N[C@@H]1C1CC1)C(=O)N1CCC[C@H](N1)C(=O)OCC(C)(C)C2` [Example 327], the IC50 at KRAS G12V is 1 to 10 µM.

Take `CCn1c(-c2cccnc2[C@@H](C)OC)c2c3cc(ccc31)-c1cc(O)cc(c1)C[C@H](NC(=O)[C@H](C(C)C)N(C)C(=O)[C@H]1CCN(C(=O)[C@H]3CN3)C1)C(=O)N1CCC[C@H](N1)C(=O)OCC(C)(C)C2` (atropisomer, axis not shown) [Example 43B]: the IC50 at KRAS WT was in the range of 1 to 10 µM.

With `CCn1c(-c2cccnc2[C@H](C)OC)c2c3cc(ccc31)-c1cccc(c1)C[C@H](NC(=O)[C@H](C(C)C)N(C)C(=O)CCN=C=NCc1ccccc1OC)C(=O)N1CCC[C@H](N1)C(=O)OCC(C)(C)C2` [Example 73], the concentration for half-maximal inhibition (IC50) on KRAS G12V (read-out: KRAS G12V FRET IC50) lay in the range of 1 to 10 µM.

`CCn1c(-c2cccnc2[C@H](C)OC)c2c3cc(ccc31)-c1cc(O)cc(c1)C[C@H](NC(=O)[C@H](C1CCCC1)N(C)C(=O)CN(C)C(=O)[C@H]1CN1)C(=O)N1CCC[C@H](N1)C(=O)OCC(C)(C)C2` [Example 95, (2R)—N-(2-(((1S)-1-cyclopentyl-2-(((6^3S,4S)-1^1-ethyl-25-hydroxy-1^2-(2-((S)-1-methoxyethyl)pyridin-3-yl)-10,10-dimethyl-5,7-dioxo-61,62,63,64,65,66-hexahydro-1^1H-8-oxa-1 (5,3)-indola-6 (1,3)-pyridazina-2 (1,3)-benzenacycloundecaphane-4-yl)amino)-2-oxoethyl) (methyl)amino)-2-oxoethyl)-N-methylaziridine-2-carboxamide]: the IC50 in the assay on NCI-H358 (K-Ras G12C) was less than 0.01 µM; in the assay on AsPC-1 (K-Ras G12D) [2], 0.01 to 0.1 µM. For the same compound, in the assay on AsPC-1 (K-Ras G12D) [1], the EC50 was less than 5 µM.

Consider `CCn1c(-c2cccnc2[C@H](C)OC)c2c3cc(ccc31)-c1cc(O)cc(c1)C[C@H](NC(=O)[C@H](C(C)C)N(C)C(=O)CN(C)C(=O)[C@H]1N[C@@H]1C(F)(F)F)C(=O)N1CCC[C@H](N1)C(=O)OCC(C)(C)C2` [Example 261], for which the IC50 was less than 0.01 µM with NCI-H358 (K-Ras G12C) and 0.1 to 1 µM with AsPC-1 (K-Ras G12D) [2]. Besides, in the assay on AsPC-1 (K-Ras G12D) [1], the EC50 is less than 5 µM.

Take `CCn1c(-c2cnccc2COC)c2c3cc(ccc31)-c1cc(O)cc(c1)C[C@H](NC(=O)[C@H](C(C)C)N(C)C(=O)CN(C)C(=O)[C@@H]1N[C@@H]1C(=O)OC)C(=O)N1CCC[C@H](N1)C(=O)OCC(C)(C)C2` [Example 49, methyl (2S,3R)-3-((2-(((2S)-1-(((6^3S,4S)-1^1-ethyl-25-hydroxy-1^2-(4-(methoxymethyl)pyridin-3-yl)-10,10-dimethyl-5,7-dioxo-6^1,6^2,6^3,6^4,6^5,6^6-hexahydro-1^1H-8-oxa-1 (5,3)-indola-6 (1,3)-pyridazina-2 (1,3)-benzenacycloundecaphane-4-yl)amino)-3-methyl-1-oxobutan-2-yl) (methyl)amino)-2-oxoethyl) (methyl)carbamoyl) aziridine-2-carboxylate]: the IC50 in the assay with NCI-H358 (K-Ras G12C) and in the assay with AsPC-1 (K-Ras G12D) [2] was 1 to 10 µM each time. For the same compound, in the assay on AsPC-1 (K-Ras G12D) [1], the EC50 is less than 5 µM.

Take `CCn1c(-c2cccnc2[C@H](C)OC)c2c3cc(ccc31)-c1cc(O)cc(c1)C[C@H](NC(=O)[C@H](C(C)C)N(C)C(=O)CN(C)C(=O)[C@@H]1CN1)C(=O)N1CCC[C@H](N1)C(=O)OCC(C)(C)C2` [Example 150]: the IC50 was less than 0.01 µM in the assay on NCI-H358 (K-Ras G12C) and 0.1 to 1 µM with AsPC-1 (K-Ras G12D) [2]. Besides, the EC50 in the assay on AsPC-1 (K-Ras G12D) [1] was less than 5 µM.

In the case of `CCn1c(-c2cccnc2[C@H](C)OC)c2c3cc(ccc31)-c1cc(O)cc(c1)C[C@H](NC(=O)[C@H](C(C)C)N(C)C(=O)CNC(=O)[C@@H]1N[C@@H]1C1CC1)C(=O)N1CCC[C@H](N1)C(=O)OCC(C)(C)C2` [Example 141], the IC50 in the assay on NCI-H358 (K-Ras G12C) and in the assay on AsPC-1 (K-Ras G12D) [2] was 0.1 to 1 µM in each case. Also, the EC50 in the assay with AsPC-1 (K-Ras G12D) [1] was less than 5 µM.

On to `CCn1c(-c2cccnc2[C@H](C)OC)c2c3cc(ccc31)-c1cccc(c1)C[C@H](NC(=O)[C@H](C(C)C)N(C)C(=O)CN(C)C(=O)[C@H]1CN1)C(=O)N1CCC[C@H](N1)C(=O)OCC(C)(C)C2` [Example 107], for which the IC50 is 0.1 to 1 µM with NCI-H358 (K-Ras G12C) and 1 to 10 µM with AsPC-1 (K-Ras G12D) [2]. Also, the EC50 in the assay with AsPC-1 (K-Ras G12D) [1] was less than 5 µM.

Take `CCn1c(-c2cccnc2[C@H](C)OC)c2c3cc(ccc31)-c1cc(O)cc(c1)C[C@H](NC(=O)[C@H](C(C)C)N(C)C(=O)CN(C)C(=O)[C@@]1(C)CN1)C(=O)N1CCC[C@H](N1)C(=O)OCC(C)(C)C2` [Example 256]: the IC50 was 0.01 to 0.1 µM in the assay with NCI-H358 (K-Ras G12C) and 0.1 to 1 µM with AsPC-1 (K-Ras G12D) [2]. For the same compound, the EC50 in the assay on AsPC-1 (K-Ras G12D) [1] is less than 5 µM.

For `CCn1c(-c2cccnc2[C@H](C)OC)c2c3cc(ccc31)-c1cc(O)cc(c1)C[C@H](NC(=O)[C@H](C(C)C)N(C)C(=O)CN(C)C(=O)[C@@H]1N[C@@H]1C(F)(F)F)C(=O)N1CCC[C@H](N1)C(=O)OCC(C)(C)C2` [Example 258], the results for the IC50 in the assay with NCI-H358 (K-Ras G12C) and in the assay on AsPC-1 (K-Ras G12D) [2] were 0.01 to 0.1 µM and 0.1 to 1 µM, respectively. The EC50 in the assay on AsPC-1 (K-Ras G12D) [1] was less than 5 µM.

As to `CCn1c(-c2cccnc2[C@H](C)OC)c2c3cc(ccc31)-c1cc(O)cc(c1)C[C@H](NC(=O)[C@H](C(C)C)N(C)C(=O)CN(C)C(=O)[C@H]1CN1CC1(C)COC1)C(=O)N1CCC[C@H](N1)C(=O)OCC(C)(C)C2` (some centres unmarked) [Example 279], the IC50 was less than 0.01 µM in the assay on NCI-H358 (K-Ras G12C) and 0.1 to 1 µM in the assay with AsPC-1 (K-Ras G12D) [2]. The EC50 with AsPC-1 (K-Ras G12D) [1] was less than 5 µM.

On to `CCn1c(-c2cccnc2[C@H](C)OC)c2c3cc(ccc31)-c1cc(O)cc(c1)C[C@H](NC(=O)[C@H](C(C)C)N(C)C(=O)CN(C)C(=O)[C@H]1CN1CC1COC1)C(=O)N1CCC[C@H](N1)C(=O)OCC(C)(C)C2` (some centres unmarked) [Example 277], for which the IC50 is 0.01 to 0.1 µM in the assay with NCI-H358 (K-Ras G12C) and 0.1 to 1 µM with AsPC-1 (K-Ras G12D) [2]. Further, the EC50 in the assay with AsPC-1 (K-Ras G12D) [1] is less than 5 µM.

Consider `CCn1c(-c2cccnc2[C@H](C)OC)c2c3cc(ccc31)-c1cc(O)cc(c1)C[C@H](NC(=O)[C@H](C(C)C)N(C)C(=O)CN(C)C(=O)[C@H]1N[C@H]1C1CCC1)C(=O)N1CCC[C@H](N1)C(=O)OCC(C)(C)C2` [Example 288], for which the IC50 with NCI-H358 (K-Ras G12C) lay within 0.01 to 0.1 µM; in the assay with AsPC-1 (K-Ras G12D) [2], 0.1 to 1 µM. The EC50 in the assay with AsPC-1 (K-Ras G12D) [1] was less than 5 µM.

For the compound `CCn1c(-c2cccnc2[C@H](C)OC)c2c3cc(ccc31)-c1cc(O)cc(c1)C[C@H](NC(=O)[C@H](C(C)C)N(C)C(=O)CN(C)C(=O)[C@@H]1CN1CC1(C)COC1)C(=O)N1CCC[C@H](N1)C(=O)OCC(C)(C)C2` (some centres unmarked) [Example 280], the IC50 in the assay with NCI-H358 (K-Ras G12C) was less than 0.01 µM; with AsPC-1 (K-Ras G12D) [2] it was 1 to 10 µM. Moreover, the EC50 in the assay on AsPC-1 (K-Ras G12D) [1] is less than 5 µM.
